{"source": "patent US8889661B2", "about": "(Teva Pharmaceutical Industries, Ltd., priority 2010, dated 2014)", "key": {"[1]": {"tested_on": "MRL/lpr lupus mouse model", "test": "Non-GLP in vivo evaluation of laquinimod in the MRL/lpr lupus mouse model", "conditions": "for kidney glomerulonephritis (histopathology) / salivary gland inflammation (histopathological scoring): laquinimod 5 mg/kg, vs vehicle; for kidney glomerulonephritis (histopathology): MMF 100 mg/kg p.o.; for salivary gland inflammation (histopathological scoring): MMF 100 mg/kg", "experimental": "This study evaluates the efficacy of laquinimod in the MRL/lpr lupus mouse model.\nAnimals were monitored until their urine proteinuria reached >200 mg/dL at which time they were enrolled in the study.\nProteinuria, ankle and paw diameters, dsDNA autoantibody levels and survival were monitored during in life portion of the study. At termination, blood samples were harvested for determination of dsDNA autoantibody levels, spleens were harvested and weighed then processed to isolate splenocytes which were counted. Kidney, lung, skin, lymph node, salivary gland and joints were harvested, processed for histological examination and scored by a histopathologist blind to the treatments."}, "[2]": {"tested_on": "(NZBxNZW)F1 mice", "conditions": "for proteinuria (PU): Week 12 observation, vs vehicle (water), laquinimod 25 mg/kg p.o. daily, CTX once weekly i.p., MW U test; for immune complex deposition (ICD) in kidney: end of experiment (12 weeks), vs vehicle, scoring and image analysis", "description": "Systemic Lupus Erythematosus (SLE) is a disorder of generalized autoimmunity characterized by defective T cell-mediated responses and the formation of a variety of antibodies reactive to self or altered self-antigens. SLE is mainly characterized by the presence of anti-DNA antibodies. Some of these auto-antibodies combine with the corresponding auto-antigens, forming immune complexes, either in the circulating blood or directly in tissues, resulting in severe damage. Glomerulonephritis induced by immune complexes is in fact the major cause of death in patients with SLE. (NZBxNZW)F1 are lupus-prone mice that develop an SLE-like disease spontaneously including anti-dsDNA antibodies (Abs), proteinuria and Immune Complex Deposits (ICD). The (NZBxNZW)F1 (NZB/W) murine model is the hallmark of spontaneous SLE.\nMTX is an antimetabolite drug used in treatment of cancer and autoimmune diseases. It acts by inhibiting the metabolism of folic acid via the inhibition of dihydrofolate reductase and blocks DNA synthesis in rapidly proliferate cells. These actions include immunosuppression.\nCTX was applied once weekly in a dose of […] i.p. MTX was applied 3 times a week p.o. at 35 μg/mouse.\nAlso, body weight changes were recorded weekly and at the end of experiment both kidneys were preserved, one for possible conventional histology and one for immune complex detection (ICD) in glomeruli. Evaluation of ICD was performed by scoring and by image analysis.\n80 animals were involved in the study."}, "[3]": {"conditions": "in vivo; cited from earlier work"}, "[4]": {"tested_on": "active lupus nephritis patients", "test": "Phase IIa clinical trial of laquinimod in combination with standard of care (MMF and steroids) in active lupus nephritis", "type": "in vivo, human", "description": "Approximately 45 Systemic Lupus Erythematosus patients with active lupus nephritis (LN) are enrolled. [ISN/RPS 2003 classification of lupus nephritis—classes III (A or A/C), IV-S or IV-G (A or A/C), or class V—pure or in combination with class III or IV].\nThe overall study duration is up to 32 weeks, with the screening phase being up to 4 weeks, the treatment period being 24 weeks and the follow-up period being 4 weeks for all subjects who complete the 24-week treatment period or subjects who prematurely discontinue treatment prior to Week 24 visit.\nPlacebo arm—2 capsules of placebo. Mycophenolate Mofetil (MMF)\nMMF tablets 500 mg. All treatment arms receive MMF at baseline and throughout the study to a target dose of 2 g/day.\nSubjects are assessed for study eligibility up to 4 weeks prior to baseline. Eligible subjects are initially randomized in a 1:1 ratio into one of the following two treatment arms: • 1.\nUpon approval, randomization into one of the following three treatment arms occurs in a ratio that allows for reaching an overall target enrollment of approximately 15 subjects per treatment arm. Drop-outs are not replaced. • 1.\nIn addition, all receive IV methylprednisolone 500 mg/day for 3 days followed by 40 mg/day oral prednisolone/prednisone, which is tapered to not more than 10 mg/day by the end of Week 20, on a fixed steroid tapering regimen).\nAny of the following results in early termination from the study: • 1. Increase in serum creatinine without improvement in proteinuria from 8 weeks onward (confirmed by repeated measurement within 2 weeks), defined as: • a. Serum creatinine >1.3 mg/dL that is at least 25% higher than the baseline value; and • b. […] Doubling of protein to creatinine ratio compared to baseline and protein to creatinine ratio >3 from Week 8 onwards (confirmed by repeated measurement within 2 weeks. At least one of the measurements should be a 24 hours urine collection). Outcome Measures Response Definitions • 1. Complete response (CR)—protein to creatinine ratio <0.5 and [decreased serum creatinine by at least 25% compared to baseline or serum creatinine <1.3 mg/dL]. • 2. […] BILAG renal response is defined as change from renal A or B at baseline to C or D. • 4. BILAG Substantial Responder (SR) is defined as all systems at last observed value (LOV) are C or D/E providing at least one system is A or B at baseline. Clinical Effect Outcome Measure Renal—System 1. Proportion of Subjects with Complete or Partial Response at Week 24 and the Lack of Treatment Failure"}, "[5]": {"tested_on": "(NZBxNZW)F1 mice", "test": "Survival dose response study of laquinimod in the (NZBxNZW)F1 model for SLE, 37 weeks", "type": "in vivo, mouse", "experimental": "The positive control used was Cytoxan.\nCTX was administered intraperitonealy once weekly, (200 μl/mouse). Blood samples were collected on Weeks 1, 5, 15 and 37. Serum samples were prepared for detection of anti-dsDNA antibodies. After 37 weeks (257 days) of treatment, mice were sacrificed."}, "[6]": {"tested_on": "(NZBxNZW)F1 mice", "test": "Confirmation of efficacy of laquinimod in the (NZBxNZW)F1 model for SLE, 13 weeks", "type": "in vivo, mouse", "experimental": "CTX was administered intraperitonealy once weekly, (200 μl/mouse). Blood samples were collected on Weeks 1, 5, and 11. Serum samples were prepared for detection of anti-dsDNA antibodies. After 13 weeks of treatment, mice were sacrificed and immune complex deposits in their kidneys were evaluated."}, "[7]": {"conditions": "daily oral 0.5 mg or 1 mg laquinimod with standard of care (MMF and steroids)"}, "[8]": {"conditions": "daily oral 0.5 mg or 1 mg laquinimod with standard of care, during the study period"}}}
{"smiles": "COc1c(C)c2c(c(O)c1C/C=C(\\C)CCC(=O)OCCN1CCOCC1)C(=O)OC2", "note": "[MMF, 2-morpholinoethyl (E)-6-(1,3-dihydro-4-hydroxy-6-methoxy-7-methyl-3-oxo-5-isogenzofuranyl)-4-methyl-4-hexenoate, reference compound]", "values": [{"measurement": "lung BALT hyperplasia (histopathology)", "setting": "[1]; MMF 100 mg/kg p.o. vs vehicle", "value": "significant difference"}, {"measurement": "kidney glomerulonephritis (histopathology)", "setting": "[1]", "value": "significant reductions"}, {"measurement": "salivary gland inflammation (histopathological scoring)", "setting": "[1]", "value": "significant reduction"}]}
{"smiles": "CN(Cc1cnc2nc(N)nc(N)c2n1)c1ccc(C(=O)N[C@@H](CCC(=O)O)C(=O)O)cc1", "note": "[MTX, methotrexate]", "values": [{"measurement": "animals died during the treatment period", "setting": "[2]; 12 weeks treatment, 80 animals in the study", "value": 2}, {"measurement": "symptoms (proteinuria and immune complex deposition in kidney)", "setting": "[2]; MTX 35 μg/mouse p.o. 3 times a week, 12 weeks", "value": "failed to inhibit"}]}
{"smiles": "CCN(C(=O)c1c(O)c2c(Cl)cccc2n(C)c1=O)c1ccccc1", "note": "[laquinimod]", "values": [{"measurement": "proteinuria (PU)", "setting": "[2]", "value": "significantly diminished"}, {"measurement": "immune complex deposition (ICD) in kidney", "setting": "[2]", "value": "significantly inhibited"}, {"measurement": "oral bioavailability", "setting": "[3]", "value": "high"}, {"measurement": "bone resorption (joint histopathology)", "setting": "[1]; both doses of laquinimod (1 and 5 mg/kg) vs vehicle", "value": "Significant reductions"}, {"measurement": "salivary gland inflammation score, higher vs lower dose", "setting": "[1]; laquinimod 5 mg/kg compared with 1 mg/kg", "value": "significantly lower score"}, {"measurement": "cartilage damage (joint histopathology)", "setting": "[1]; laquinimod 5 mg/kg vs vehicle", "value": "significant reduction"}, {"measurement": "joint inflammation (histopathology)", "setting": "[1]; laquinimod 5 mg/kg vs vehicle", "value": "significantly reduced"}, {"measurement": "splenocytes as percent of total spleen cells", "setting": "[1]; laquinimod 5 mg/kg vs vehicle", "value": "significant reduction"}, {"measurement": "kidney glomerulonephritis (histopathology)", "setting": "[1]", "value": "significant reductions"}, {"measurement": "salivary gland inflammation (histopathological scoring)", "setting": "[1]", "value": "significant reduction"}, {"measurement": "measures during the in life phase (proteinuria, ankle and paw diameters, dsDNA autoantibody levels, survival)", "setting": "[1]; laquinimod 1 or 5 mg/kg p.o., trends not significant except sporadic time points", "value": "trend toward dose dependent efficacy"}, {"measurement": "effect of the combination of laquinimod, MMF and steroids on active lupus nephritis", "setting": "[4]; 0.5 mg and 1.0 mg laquinimod daily with MMF and steroids", "value": "significantly more than the additive effect of each agent alone"}, {"measurement": "complete response (CR)", "setting": "[4]; [7]", "value": "results in a complete response"}, {"measurement": "partial response (PR)", "setting": "[4]; [7]", "value": "results in a partial response"}, {"measurement": "proteinuria", "setting": "[4]; [7]", "value": "reduces proteinuria"}, {"measurement": "tolerability and toxicity", "setting": "[4]; [7]", "value": "well tolerated and has no toxicity"}, {"measurement": "treatment of active lupus nephritis", "setting": "[4]; [7]", "value": "effective to treat active lupus nephritis"}, {"measurement": "urinary sediments", "setting": "[4]; [7]", "value": "eliminates urinary sediments"}, {"measurement": "decrease of glomerular filtration rate (GFR) as compared to baseline", "setting": "[4]; [8]", "value": "no more than 10%"}, {"measurement": "glomerular filtration rate (GFR) reached", "setting": "[4]; [8]", "value": "greater than 70 ml/min/1.73 m^2"}, {"measurement": "increase of glomerular filtration rate (GFR) as compared to baseline", "setting": "[4]; [8]", "value": "at least 25%"}, {"measurement": "progression of proteinuria", "setting": "[5]; all doses of laquinimod (0.2, 1, 5, 25 mg/kg p.o. 5 days a week), vs vehicle", "value": "abrogated the progression of proteinuria"}, {"measurement": "survival", "setting": "[5]; all doses of laquinimod, 37 weeks", "value": "significant prolongation of survival"}, {"measurement": "proteinuria, compared with positive control CTX", "setting": "[5]; laquinimod doses of 1, 5 and 25 mg/kg", "value": "as effective as the positive control cyclophosphamide (CTX)"}, {"measurement": "proteinuria", "setting": "[5]; laquinimod lowest dose (printed 0.2 mg/ml), compared to the higher doses", "value": "abrogated proteinuria but not to the same extent"}, {"measurement": "anti-dsDNA levels", "setting": "[5]; serum, Weeks 1, 5, 15 and 37", "value": "dose dependent reduction in antibody levels over time"}, {"measurement": "anti-dsDNA levels", "setting": "[6]; laquinimod 5 mg/kg", "value": "behaved similarly to the positive control CTX"}, {"measurement": "immune complex deposits", "setting": "[6]; laquinimod 5 mg/kg", "value": "behaved similarly to the positive control CTX"}, {"measurement": "disease progression as measured by proteinuria", "setting": "[6]; laquinimod 0.2 and 5 mg/kg p.o. 5 days a week, 13 weeks", "value": "abrogated disease progression"}, {"measurement": "ICD (immune complex deposits)", "setting": "[6]; laquinimod low dose 0.2 mg/kg", "value": "did not inhibit"}, {"measurement": "anti-dsDNA Ab titers", "setting": "[6]; laquinimod low dose 0.2 mg/kg", "value": "did not inhibit"}, {"measurement": "proteinuria", "setting": "[6]; laquinimod low dose 0.2 mg/kg", "value": "prevented increased proteinuria"}]}
{"smiles": "O=P1(N(CCCl)CCCl)NCCCO1", "note": "(stereo not drawn) [CTX, cyclophosphamide]", "values": [{"measurement": "proteinuria (PU)", "setting": "[2]", "value": "significantly diminished"}, {"measurement": "immune complex deposition (ICD) in kidney", "setting": "[2]", "value": "significantly inhibited"}]}
